Data from PMC10816640, “Discovery of Novel Diphenyl Acrylonitrile Derivatives That Promote Adult Rats’ Hippocampal Neurogenesis” (International Journal of Molecular Sciences, 2024).
“Also recorded” adds a separate entry of the source.

Tests used:
[1] = system: progenitor cells in the rodents’ hippocampi; assay: Proliferation stage of neurogenesis: BrdU labeling, rats sacrificed 24 h after BrdU; assay type: in vivo, rat; conditions: i.p. 4.0 mg/kg/day for 28 days, BrdU pulse, vs vehicle; for proliferation-promoting activity (number of BrdU+ positive cells): nine-week-old rats (n = 4)
Excerpt: (§1) Previous in vitro or in vivo studies mainly focused on stimulating the proliferation effect of the small molecules. In this study, a two-step protocol was employed. First, the stimulating function of the compounds on progenitor cells in the rodents’ hippocampi was examined with using bromodeoxyuridine (BrdU) labeling. Next, the potent compounds were further screened to ascertain their ability to promote the differentiation of neural progenitor cells, as confirmed by dual labeling of BrdU and NeuN (neuronal nuclear antigen).
Adult rats were administered intraperitoneally with the prepared compounds at a dose of 4.0 mg/kg/day for a period of 28 days, followed by a BrdU pulse. After 24 h, the rats were sacrificed, and their brain tissues were isolated and cryosectioned. Immunohistochemical staining was performed and eight brain tissue slices were randomly selected for statistical analyzing.
Eight-week-old (or 10-week-old) SD male rats purchased from Peking University Health Science Center were acclimatized for one week at the Beijing Institute of Technology. All experimental protocols strictly adhered to the regulations governing the management of experimental animals and the animal ethics policy of the Beijing Institute of Technology.
(§2) The compounds were dissolved in reagent-grade soybean oil containing 10% ethanol to reach a drug concentration of 2.8 mg/mL. The rats in the experimental group received intraperitoneal injections of the compounds at a dose of 4.0 mg/kg/d for 28 consecutive days. As a control, the vehicle group was administered injections of reagent-grade soybean oil containing 10% ethanol. BrdU (Sigma-Aldrich, St. louis, MA, USA) solution, prepared in physiological saline at a concentration of 10 mg/mL, was administered to all rats on day 29. Each rat received two injections of BrdU at a dosage of 50 mg/kg, with a 2 h interval between injections. The rats were euthanized 24 h (or 28 days) after the final BrdU injection.
(§3) Two or four rats per group were anesthetized using pentobarbital sodium (70 mg/kg) and subsequently perfused with physiological saline. The brain tissue was carefully dissected and fixed in 4% paraformaldehyde at 4 °C for one week. Next, the brain tissue underwent dehydration using a phosphate-buffered saline (PBS) solution containing 20% to 30% sucrose. Finally, the brain tissue was cryosectioned into slices with a thickness of 30 μm, and eight slices were randomly selected for further analysis.
The assessment of new cell proliferation was conducted using BrdU staining. To eliminate endogenous peroxides, sections were exposed to 1% H2O2 for 30 min at RT. Cellular denaturation was achieved by treating the sections with 2 M HCl at 37 °C for 1 h, followed by rinsing in 0.1 M borate buffer (pH 8.5). Tissue sections were subjected to blocking in a solution consisting of 5% goat serum and 0.5% Triton X-100 in PBS at RT for 1–2 h. The specimens were then incubated overnight at 4 °C with a mouse primary antibody specific to BrdU (diluted at 1:500; Millipore, Billerica, MA, USA). Subsequently, the DAB kit was employed for 2 h of incubation at RT.
(§4) The data were presented as mean ± SEM (standard error of the mean) and visualized using GRAPHPAD PRISM 6 (Graphpad Software, La Jolla, CA, USA). Statistical analysis was conducted utilizing one-way analysis of variance (ANOVA) followed by a post hoc test. Subsequent to the statistical treatment, the observed discrepancies were determined to be statistically significant (p < 0.05).

[2] = system: newborn neural progenitor cells (differentiation into mature neurons); assay: Differentiation stage of neurogenesis: NeuN/BrdU double staining, rats sacrificed 28 days after BrdU; assay type: in vivo, rat; conditions: for neurogenesis-promoting activity (number of NeuN+ and BrdU+ cells), differentiation stage: nine-week-old rats (n = 4), i.p. 4.0 mg/kg
Excerpt: as §1
The study employed a rat model, wherein nine-week-old rats were administered intraperitoneally with the compound at a dose of 4.0 mg/kg/day for 28 days and then treated with a pulse of BrdU. Instead of sacrificing the rats 24 h after the BrdU injections, the rats were sacrificed after another 28 days. The brains were then isolated and cryosectioned. Eight randomly selected slices were subjected to immunohistochemical staining. This staining enabled the co-localization of the BrdU-incorporated cells with the NeuN marker, enabling the definition of the compounds that could promote the differentiation of newborn neural progenitor cells into mature functional neurons.
as §2, §3
The differentiation process of NPCs was visualized through the utilization of the NeuN/BrdU double staining technique. Tissue sections were subjected to an incubation period in a blocking buffer at RT for 1 to 2 h. The specimens were exposed to a rabbit anti-NeuN antibody (diluted at 1:500, Abcam, Cambridge, MA, UK) and a primary antibody, BrdU (diluted at 1:500), overnight at 4 °C. Afterwards, the sections were treated with anti-mouse 488 and anti-rabbit TRITC secondary antibodies for 2 h at RT.
as §4

[3] = system: hCMEC/D3 cells; assay: CCK-8 assay for cytotoxicity; assay type: cell-based; conditions: hCMEC/D3 cell lines, CCK-8, 48 h incubation
Procedure: hCMEC/D3 cells were obtained from the Cell Resource Center, Peking Union Medical College (PCRC). All cells were acquired in 2023 and were maintained in culture for no more than 10 continuous passages. The cells were cultured in DMEM (11995065, Gibco, Grand Island, NY, USA) supplemented with 10% FBS (164210-50, Procell, Austin, TX, USA), 100 units of penicillin, and […] of streptomycin (PB180120, Procell).
hCMEC/D3 cells (5 × 10^3) were seeded into 96-well plates in 90 μL of DMEM medium containing 10% fetal bovine serum per well. All test compounds were formulated as 10 mM stock solutions in DMSO (final concentration ≤ 0.5%). After overnight incubation, the test compound stock solution was diluted with DMEM medium containing 10% fetal bovine serum to every target concentration, and 10 μL of each was added to each well. Three parallel experiments were set up for each compound. After incubation for 48 h, 10 μL of CCK-8 reagent was added to each well in sequence according to the manufacturer’s instructions. After incubating in a 37 °C incubator for 1–2 h, the absorbance was measured at a wavelength of 450 nm, using a wavelength of 620 nm as a reference, and detected with a ThermoScientific Multiskan FC (Thermo Fisher Scientific). The graphs are representative results, and this experiment was independently repeated three times with similar results.

[4] = system: progenitors in rodents’ hippocampi; parameters: method as in PMID 28525839; conditions: cited from earlier work
[5] = system: newborn cells in the subgranular zone; assay: BrdU+ newborn cells, rats sacrificed 28 days after BrdU; assay type: in vivo, rat; conditions: nine-week-old rats (n = 2), i.p. 4.0 mg/kg/day for 28 days, BrdU pulse, Figure 7A
Procedure: The study employed a rat model, wherein nine-week-old rats were administered intraperitoneally with the compound at a dose of 4.0 mg/kg/day for 28 days and then treated with a pulse of BrdU. Instead of sacrificing the rats 24 h after the BrdU injections, the rats were sacrificed after another 28 days. The brains were then isolated and cryosectioned. Eight randomly selected slices were subjected to immunohistochemical staining. This staining enabled the co-localization of the BrdU-incorporated cells with the NeuN marker, enabling the definition of the compounds that could promote the differentiation of newborn neural progenitor cells into mature functional neurons. The compounds were dissolved in reagent-grade soybean oil containing 10% ethanol to reach a drug concentration of 2.8 mg/mL. The rats in the experimental group received intraperitoneal injections of the compounds at a dose of 4.0 mg/kg/d for 28 consecutive days. As a control, the vehicle group was administered injections of reagent-grade soybean oil containing 10% ethanol. BrdU (Sigma-Aldrich, St. louis, MA, USA) solution, prepared in physiological saline at a concentration of 10 mg/mL, was administered to all rats on day 29. Each rat received two injections of BrdU at a dosage of 50 mg/kg, with a 2 h interval between injections. The rats were euthanized 24 h (or 28 days) after the final BrdU injection. Two or four rats per group were anesthetized using pentobarbital sodium (70 mg/kg) and subsequently perfused with physiological saline. The brain tissue was carefully dissected and fixed in 4% paraformaldehyde at 4 °C for one week. Next, the brain tissue underwent dehydration using a phosphate-buffered saline (PBS) solution containing 20% to 30% sucrose. Finally, the brain tissue was cryosectioned into slices with a thickness of 30 μm, and eight slices were randomly selected for further analysis. The assessment of new cell proliferation was conducted using BrdU staining. To eliminate endogenous peroxides, sections were exposed to 1% H2O2 for 30 min at RT. Cellular denaturation was achieved by treating the sections with 2 M HCl at 37 °C for 1 h, followed by rinsing in 0.1 M borate buffer (pH 8.5). Tissue sections were subjected to blocking in a solution consisting of 5% goat serum and 0.5% Triton X-100 in PBS at RT for 1–2 h. The specimens were then incubated overnight at 4 °C with a mouse primary antibody specific to BrdU (diluted at 1:500; Millipore, Billerica, MA, USA). Subsequently, the DAB kit was employed for 2 h of incubation at RT. The differentiation process of NPCs was visualized through the utilization of the NeuN/BrdU double staining technique. Tissue sections were subjected to an incubation period in a blocking buffer at RT for 1 to 2 h. The specimens were exposed to a rabbit anti-NeuN antibody (diluted at 1:500, Abcam, Cambridge, MA, UK) and a primary antibody, BrdU (diluted at 1:500), overnight at 4 °C. Afterwards, the sections were treated with anti-mouse 488 and anti-rabbit TRITC secondary antibodies for 2 h at RT. The data were presented as mean ± SEM (standard error of the mean) and visualized using GRAPHPAD PRISM 6 (Graphpad Software, La Jolla, CA, USA). Statistical analysis was conducted utilizing one-way analysis of variance (ANOVA) followed by a post hoc test. Subsequent to the statistical treatment, the observed discrepancies were determined to be statistically significant (p < 0.05).

With CC(=O)Nc1ccc(/C=C(\C#N)c2ccc3c(c2)OCO3)cc1 [32a, (Z)-N-(4-(2-(benzo[d][1, 3]dioxol-5-yl)-2-cyanovinyl)phenyl)acetamide] the “proliferation-promoting activity (number of BrdU+ positive cells)” value ([1]; Figure 8, 4 mg/kg/day) was “significant proliferation-promoting activity; also recorded: exhibited proliferative activity”, the “neurogenesis-promoting activity (number of NeuN+ and BrdU+ cells), differentiation stage” value ([2]; Figure 9, 4 mg/kg) was “significant neurogenesis-promoting activity; also recorded: better activity than the clinical drug NSI-189” and the IC50 [3] was 109 ± 12.9 µM.

For CC(=O)Nc1ccc(/C=C/c2ccc3c(c2)OCO3)cc1 [WS-6, N-trans-3′,4′-methylenedioxystilben-4-yl acetamide], the “promoting the proliferation of progenitors and differentiation into neurons” value [4] is given as “excellent capacity”.

For CC(C)CCNc1ncccc1C(=O)N1CCN(Cc2ccccc2)CC1 [NSI-189, reference compound], the “proliferation-promoting activity (number of BrdU+ positive cells)” value ([1]; Figure 8) was “inactive” and the “neurogenesis-promoting activity (number of NeuN+ and BrdU+ cells), differentiation stage” value ([2]; Figure 9) was “no significant neurogenesis-promoting activity”.

In the case of CC(C)NC(=O)c1ccc(/C=C/c2ccc3c(c2)OCO3)cc1 [39b, (E)-4-(2-(benzo[d][1, 3]dioxol-5-yl)vinyl)-N-isopropylbenzamide], the “proliferation-promoting activity (number of BrdU+ newborn cells)” value ([1]; eleven-week-old rats (n = 2), Figures 3-6, 4 mg/kg/day) is reported as “significant proliferation-promoting activity; also recorded: activity comparable to that found in amides 8c, 8d, and 29b”, the “proliferative activity over the longer 28 day period (number of BrdU+ cells)” value [5] is reported as “could promote the proliferation of progenitors” and the “neurogenesis-promoting activity (number of NeuN+ and BrdU+ cells, newborn neurons)” value ([2]; nine-week-old rats (n = 2), i.p. 4.0 mg/kg/day for 28 days, BrdU pulse, Figure 7B) is reported as “ranked second in terms of activity, without statistical significance”.
